{"source": "paper PMC8066331", "about": "“Anticancer Activity of Triazolo-Thiadiazole Derivatives and Inhibition of AKT1 and AKT2 Activation” (Pharmaceutics, 2021)", "key": {"DLD-1": {"system": "DLD-1", "experiment": "MTT in vitro antiproliferative assay, DLD-1", "assay_type": "cell-based, human", "conditions": "DLD-1, MTT", "source_text": "(§1) The in vitro antiproliferative activities of the novel triazolo[3,4-b]thiadiazole derivatives were estimated in ten well-established human cancer cell lines including three ovarian (SKOV-3, UWB 1.289, and UWB 1.289+BRCA1), five colorectal adenocarcinoma (DLD-1, HT-29, LS174T, LoVo, and SW403), and two prostate cancer cell lines (PC-3 and DU-145). All cancer cell lines were obtained from the American Type Culture Collection (ATCC) and cultivated in different culture media according to the instructions. The required growth mediums were supplemented with 10% fetal bovine serum and 1% streptomycin/penicillin. All cancer cell lines were cultured as monolayers and maintained at 37 °C, 5% CO2 in humidified air.\n(§2) Stock solutions of all tested compounds were prepared by dissolving the required amount of substances in the DMSO solvent to reach the desired concentration of 15 mM.\n(§3) To evaluate the in vitro antiproliferative activity of the triazolo[3,4-b]thiadiazole derivatives, 3-(4,5-dimethylthiazol-2-yl)-2,5-diphenyltetrazolium bromide (MTT) assay was assessed. According to the protocol, cells were firstly seeded into a 96-well plate at a density of 8 × 10^3 cells and grown for 24 h at 37 °C, 5% CO2 in humidified air. Subsequently, cells were treated with the tested compounds in a specific range of drug concentrations (1–100 μΜ). Following 48 h of drug exposure, the culture media were discarded and replaced with 100 μL of fresh medium. Afterwards, 50 μL of dissolved MTT in phosphate-buffered saline (PBS) solution (5 mg/mL) were added in each well and cells were incubated for 3 h at 37 °C, 5% CO2 in humidified air. Incubation time was followed by MTT discard and the addition of 100 μL of DMSO solvent so that the formazan crystals could be dissolved. The absorbance of the converted dye was immediately measured at a wavelength of 540 nm on an ELISA reader (VersaMax Microplate Reader, Orleans, CA, USA).\n(§4) The in vitro anticancer effect of a tested compound on cell viability was determined by three dose–response parameters termed GI50, TGI, and IC50. More specifically, the GI50 value indicates the required concentration of the compound that impels 50% cell growth inhibition, the TGI value corresponds to the concentration that induces 100% cell growth inhibition, and the IC50 value is the concentration that causes 50% cell death. The two parameters GI50 and TGI represent the cytostatic activity, whereas IC50 reflects the cytotoxic effect of a drug. To estimate the three parameters, nine absorbance measurements were required including control 24 h (Ct24), control 72 h (Ct72), and the mean of cell survival in all seven drug concentrations (Tt72). The percentage growth inhibition was calculated according to National Cancer Institute’s (NCI) protocol: [(Tt72x) − (Ct24)/(Ct72) − (Ct24)] × 100 for concentrations for which Tt72x > Ct24 and [(Tt72x) − (Ct24)/Ct24] × 100 for concentrations for which Tt72x < Ct24. GI50 was calculated from [(Tt72x) − (Ct24)/(Ct72) − (Ct24)] × 100 = 50, TGI was calculated from [(Tt72x) − (Ct24)/(Ct72) − (Ct24)] × 100 = 0, and IC50 was calculated from [(Tt72x) − (Ct24)/Ct24] × 100 = 50. All the experiments were carried out in triplicate."}, "SKOV-3": {"system": "SKOV-3", "experiment": "MTT in vitro antiproliferative assay, SKOV-3", "assay_type": "cell-based", "conditions": "Homo sapiens, SK-OV-3, 48 h", "source_text": "as §1, §2, §3, §4"}, "PC-3": {"system": "PC-3", "experiment": "MTT in vitro antiproliferative assay, PC-3", "assay_type": "cell-based", "conditions": "Homo sapiens, PC-3, 48 h", "source_text": "as §1, §2, §3, §4"}, "HT-29": {"system": "HT-29", "experiment": "MTT in vitro antiproliferative assay, HT-29", "assay_type": "cell-based, human", "source_text": "as §1, §2, §3, §4"}, "DU-145": {"system": "DU-145", "experiment": "MTT in vitro antiproliferative assay, DU-145", "assay_type": "cell-based, human", "source_text": "as §1, §2, §3, §4"}}}
{"compound": "COc1cc(Cc2nnc3sc(-c4cc([N+](=O)[O-])ccc4[N+](=O)[O-])nn23)c(S(=O)(=O)N(C(C)C)C(C)C)cc1OC", "note": "[Compound 7d, 2-((6-(2,5-dinitrophenyl)-[1,2,4]triazolo[3,4-b][1,3,4]thiadiazol-3-yl)methyl)-N,N-diisopropyl-4,5-dimethoxybenzenesulfonamide]", "values": [{"measurement": "TGI", "setting": "DLD-1; 48 h drug exposure", "result": "12 ± 0.5", "unit": "μΜ"}, {"measurement": "IC50", "setting": "DLD-1; Homo sapiens, 48 h, 50% cell death", "result": "22 ± 1", "unit": "µM"}, {"measurement": "GI50", "setting": "DLD-1; Homo sapiens, 48 h drug exposure", "result": "7.3 ± 0.75", "unit": "µM"}, {"measurement": "GI50", "setting": "SKOV-3", "result": "13 ± 0.5", "unit": "µM"}, {"measurement": "IC50", "setting": "SKOV-3", "result": "23 ± 1.4", "unit": "µM"}, {"measurement": "IC (TGI)", "setting": "SKOV-3; read-out: TGI", "result": "17 ± 1", "unit": "µM"}, {"measurement": "GI50", "setting": "PC-3", "result": "8 ± 1", "unit": "µM"}, {"measurement": "IC50", "setting": "PC-3", "result": "22 ± 0.3", "unit": "µM"}, {"measurement": "IC (TGI)", "setting": "PC-3; read-out: TGI", "result": "11 ± 1.04", "unit": "µM"}, {"measurement": "TGI", "setting": "HT-29; HT-29, MTT, 48 h drug exposure", "result": "26 ± 1.52", "unit": "μΜ"}, {"measurement": "GI50", "setting": "HT-29; Homo sapiens, HT-29, 48 h", "result": "17.9 ± 2.51", "unit": "µM"}, {"measurement": "IC50", "setting": "HT-29; Homo sapiens, HT-29, 48 h", "result": "40 ± 1", "unit": "µM"}, {"measurement": "TGI", "setting": "DU-145; DU-145, MTT, 48 h drug exposure", "result": "14 ± 0.5", "unit": "μΜ"}, {"measurement": "GI50", "setting": "DU-145; Homo sapiens, DU-145, 48 h", "result": "6.8 ± 0.8", "unit": "µM"}, {"measurement": "IC50", "setting": "DU-145; Homo sapiens, DU-145, 48 h", "result": "21.3 ± 0.9", "unit": "µM"}]}
